We go through eight compounds from patent publication US7507717B2 (Xenome Ltd., priority 2002, dated 2009).

Residues, ends and D or L forms follow the SMILES beside them.

T1 sequence (P23975 whole entry): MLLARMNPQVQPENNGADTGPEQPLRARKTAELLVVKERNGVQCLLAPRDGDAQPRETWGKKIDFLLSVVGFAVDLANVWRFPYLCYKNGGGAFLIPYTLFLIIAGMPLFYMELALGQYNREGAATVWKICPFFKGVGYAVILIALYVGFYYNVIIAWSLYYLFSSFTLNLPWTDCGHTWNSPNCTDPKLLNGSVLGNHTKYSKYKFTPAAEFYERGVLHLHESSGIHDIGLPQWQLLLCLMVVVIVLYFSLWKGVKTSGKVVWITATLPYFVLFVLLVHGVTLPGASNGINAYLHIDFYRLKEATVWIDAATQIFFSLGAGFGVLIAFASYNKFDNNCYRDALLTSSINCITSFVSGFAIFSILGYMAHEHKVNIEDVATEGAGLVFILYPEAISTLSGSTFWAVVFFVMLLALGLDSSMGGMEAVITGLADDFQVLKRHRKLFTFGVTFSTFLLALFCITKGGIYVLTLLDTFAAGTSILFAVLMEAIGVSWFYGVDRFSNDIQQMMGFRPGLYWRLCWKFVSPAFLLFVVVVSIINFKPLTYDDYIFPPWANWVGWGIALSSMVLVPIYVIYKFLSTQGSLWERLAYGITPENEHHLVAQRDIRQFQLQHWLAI

The first assay addresses T1, human noradrenaline transporter (hNET) (Homo sapiens, UniProt P23975).
T1 construct: expressed in transfected cells; host or cells: COS-7 cells (ATCC), transient transfection with metafectene
The assay can be described thus: biochemical. It is filed as binding.
Conditions: not given
On to YNGVCCGYILCHPC [compound 208], for which the “Av IC50 Displacement of 3H-nisoxetine from hNET” value is reported as −2.00.

Still in this assay, the particulars now being: Av IC50 Displacement of 3H-nisoxetine from hNET.
As usually defined, the IC50 is the point on the concentration scale where inhibition reaches its midpoint. Read a high IC50 as weaker potency. For the compound `CC(C)C[C@@H]1NC(=O)[C@H](CCCCN)NC(=O)[C@H](Cc2ccc(O)cc2)NC(=O)CNC(=O)[C@@H]2CSSC[C@H](NC1=O)C(=O)N[C@@H](Cc1c[nH]cn1)C(=O)N1CCC[C@H]1C(=O)N[C@H](C(N)=O)CSSC[C@H](NC(=O)[C@@H](NC(=O)CNC(=O)[C@@H](N)CCCNC(=N)N)C(C)C)C(=O)N2` [compound 98], the IC50 was 0.513 µM.

On to `CC(=O)N[C@@H](CC(N)=O)C(=O)NCC(=O)N[C@H](C(=O)N[C@H]1CSSC[C@@H](C(N)=O)NC(=O)[C@@H]2CCCN2C(=O)[C@H](Cc2c[nH]cn2)NC(=O)[C@@H]2CSSC[C@H](NC1=O)C(=O)NCC(=O)N[C@@H](Cc1ccc(O)cc1)C(=O)N[C@@H](CCCCN)C(=O)N[C@@H](CC(C)C)C(=O)N2)C(C)C` [compound 152], for which the IC50 was 3.63 µM.

`CC(C)C[C@@H]1NC(=O)[C@H](CCCCN)NC(=O)[C@H](Cc2ccc(O)cc2)NC(=O)CNC(=O)[C@@H]2CSSC[C@H](NC1=O)C(=O)N[C@@H](CCCNC(=N)N)C(=O)N[C@@H](C)C(=O)N[C@H](C(N)=O)CSSC[C@H](NC(=O)[C@@H](NC(=O)CNC(=O)[C@H](CCCNC(=N)N)NC(=O)[C@@H](N)Cc1c[nH]c3ccccc13)C(C)C)C(=O)N2` [compound 38] showed an IC50 of 0.102 µM.

The compound `CC(C)C[C@@H]1NC(=O)[C@H](CCCCN)NC(=O)[C@H](CC(N)=O)NC(=O)CNC(=O)[C@@H]2CSSC[C@H](NC1=O)C(=O)N[C@@H](Cc1c[nH]cn1)C(=O)N1CCC[C@H]1C(=O)N[C@H](C(N)=O)CSSC[C@H](NC(=O)[C@@H](NC(=O)CNC(=O)[C@H](CC(N)=O)NC(=O)[C@@H](N)Cc1ccc(O)cc1)C(C)C)C(=O)N2` [compound 184] (HELM PEPTIDE1{Y.N.G.V.C.C.G.N.K.L.C.H.P.C.[am]}$PEPTIDE1,PEPTIDE1,5:R3-14:R3|PEPTIDE1,PEPTIDE1,6:R3-11:R3$$$V2.0) gave an IC50 of 79.4 µM.

Take `CC(C)C[C@@H]1NC(=O)[C@H](CCCCN)NC(=O)[C@H](Cc2ccc(O)cc2)NC(=O)CNC(=O)[C@@H]2CSSC[C@H](NC1=O)C(=O)N[C@@H](Cc1c[nH]cn1)C(=O)N1CCC[C@H]1C(=O)N[C@H](C(N)=O)CSSC[C@H](NC(=O)[C@@H](NC(=O)CNC(=O)[C@@H](N)CC(N)=O)[C@@H](C)O)C(=O)N2` [compound 138] (HELM PEPTIDE1{N.G.T.C.C.G.Y.K.L.C.H.P.C.[am]}$PEPTIDE1,PEPTIDE1,4:R3-13:R3|PEPTIDE1,PEPTIDE1,5:R3-10:R3$$$V2.0): the IC50 is 2.29 µM.

As to `CC(C)C[C@@H]1NC(=O)[C@H](Cc2c[nH]cn2)NC(=O)[C@H](Cc2ccc(O)cc2)NC(=O)CNC(=O)[C@@H]2CSSC[C@H](NC1=O)C(=O)N[C@@H](Cc1c[nH]cn1)C(=O)N1CCC[C@H]1C(=O)N[C@H](C(N)=O)CSSC[C@H](NC(=O)[C@@H](NC(=O)CNC(=O)[C@@H](N)CC(N)=O)C(C)C)C(=O)N2` [compound 181] (HELM PEPTIDE1{N.G.V.C.C.G.Y.H.L.C.H.P.C.[am]}$PEPTIDE1,PEPTIDE1,4:R3-13:R3|PEPTIDE1,PEPTIDE1,5:R3-10:R3$$$V2.0), the IC50 was 47.9 µM.

Regarding `CC(C)[C@H](NC(=O)CNC(=O)[C@@H](N)CC(N)=O)C(=O)N[C@H]1CSSC[C@@H](C(N)=O)NC(=O)[C@@H]2CCCN2C(=O)[C@H](Cc2c[nH]cn2)NC(=O)[C@@H]2CSSC[C@H](NC1=O)C(=O)NCC(=O)N[C@@H](Cc1ccc(O)cc1)C(=O)N[C@@H](CCCCN)C(=O)N[C@@H](CCCCN)C(=O)N2` [compound 196] (HELM PEPTIDE1{N.G.V.C.C.G.Y.K.K.C.H.P.C.[am]}$PEPTIDE1,PEPTIDE1,4:R3-13:R3|PEPTIDE1,PEPTIDE1,5:R3-10:R3$$$V2.0), the IC50 was 182 µM.
